Read-outs that look alike come from different tables or passages of the source.
Legend:
[1] = tested on: voltage sensitive sodium channels; conditions: in vitro studies; cited from earlier work
[2] = cited from earlier work
[3] = Solid form after storage at ambient temperature, analyzed by PXRD; format: physicochemical; conditions: stored at ambient temperature (about 20 to 30° C.; gradual, may occur over several months)
Description: The present invention also provides a process for transforming Form B to Form C. […] The transformation is gradual and prolonged, and may occur over several months. One skilled in the art may appreciate that the optimal conditions and time for transformation may be discovered through routine experimentation. The characterization of crystalline phases were performed using Phillips PW 1710 Diffractometer. Thermograviometric analysis (TGA) was produced using Mettler TG50 equipped with Mettler TC11 TA processor. Differential Scanning calorimetry (DSC) was performed using Mettler DSC 30 apparatus. FTIR spectra were recorded using Nicolet Avatar 360 spectrometer. Oxcarbazepine Form B was stored at an ambient temperature. The resulting material was analyzed by PXRD and found to be Form C.

[4] = Solid form after slurry in protic solvent, analyzed by PXRD; format: physicochemical
Description: One skilled in the art may appreciate that other protic solvents may be used and the optimal conditions may be determined through routine experimentation. The characterization of crystalline phases were performed using Phillips PW 1710 Diffractometer. Thermograviometric analysis (TGA) was produced using Mettler TG50 equipped with Mettler TC11 TA processor. Differential Scanning calorimetry (DSC) was performed using Mettler DSC 30 apparatus. FTIR spectra were recorded using Nicolet Avatar 360 spectrometer. Oxcarbazepine Form B was suspended in ethanol for 24 hours. The product was analyzed by PXRD and determined to be Form A. Oxcarbazepine Form C was suspended in ethanol for 24 hours. The product was analyzed by PXRD and determined to be Form A. Oxcarbazepine Form D was suspended in water for 24 hours. The product is analyzed by PXRD and is determined to be Form A.

[5] = Solid form after heating, analyzed by PXRD; format: physicochemical
Description: The present invention also provides for processes that convert one form of oxcarbazepine into another form of oxcarbazepine. Form A may be obtained by heating oxcarbazepine solvate Form E at elevated temperatures between 40° C. and 80° C., preferably 60° C., for a period of 2 hours to 10 hours, preferably 4 hours. One skilled in the art may appreciate that Form E may transform to Form A under different conditions, and that the optimal conditions may be discovered with routine experimentation. The present invention also provides a process for transforming Form B to Form A. At about ambient temperature, Form B transforms to Form C. One skilled in the art would appreciate that such a transition may also occur at temperatures above and below ambient temperature, and that by routine experimentation the boundary of the temperature range may be determined. At higher temperatures, between 60° C. and 120° C., preferably 60° C., a transformation from form B to form A occurs after a few hours, as determined by the temperature. The temperature at which Form B transforms to Form A rather than Form C may be determined by routine experimentation. One skilled in the art may appreciate that the rate and extent of the transformation varies with the conditions and the amount of time under which the transformation occurs. […] FTIR spectra were recorded using Nicolet Avatar 360 spectrometer. […]

NC(=O)N1c2ccccc2CC(O)c2ccccc21 (centres unmarked) [10-hydroxy metabolite of oxcarbazepine]
effect on voltage sensitive sodium channels [1]: blocks voltage sensitive sodium channels

NC(=O)N1c2ccccc2CC(=O)c2ccccc21 [Oxcarbazepine Form A, 10-oxo-10,11-dihydro-5H-dibenz[b, f]azepine-5-carboxamide]
solubility ([2]; solvents ethanol, ether and water): practically insoluble | solubility ([2]; solvents such as chloroform, dichloromethane, acetone and methanol): slightly soluble

NC(=O)N1c2ccccc2CC(=O)c2ccccc21 [Oxcarbazepine Form B, 10-oxo-10,11-dihydro-5H-dibenz[b, f]azepine-5-carboxamide]
crystal form found by PXRD after storage (solid-state stability) [3]: Form C | crystal form found by PXRD after suspension in solvent (solid-state stability) ([4]; suspended in ethanol for 24 hours): Form A | crystal form found by PXRD after heating (solid-state stability) ([5]; heated to about 60° C., maintained for five hours): Form A

NC(=O)N1c2ccccc2CC(=O)c2ccccc21 [Oxcarbazepine Form D, 10-oxo-10,11-dihydro-5H-dibenz[b, f]azepine-5-carboxamide]
crystal form found by PXRD after suspension in solvent (solid-state stability) ([4]; suspended in water for 24 hours): Form A

NC(=O)N1c2ccccc2CC(=O)c2ccccc21 [Oxcarbazepine solvate Form E, 10-oxo-10,11-dihydro-5H-dibenz[b, f]azepine-5-carboxamide]
crystal form found by PXRD after heating (solid-state stability) ([5]; heated to 60° C., maintained for 4 hours): Form A
